From ChEMBL document CHEMBL3785042, “Discovery of MK-8831, A Novel Spiro-Proline Macrocycle as a Pan-Genotypic HCV-NS3/4a Protease Inhibitor” (ACS Med Chem Lett, 2016)

Key:
[1] = test system: Hepatitis C virus; assay: Antiviral activity against HCV genotype 1b harboring wild type NS3/4A protease infected in human HuH7 cells assessed as inhibition of viral replication after 72 hrs by RT-PCR method in presence of 10% fetal bovine serum; format: functional, organism-based, Hepacivirus hominis; conditions: Huh-7, 72 h
[2] = test system: Hepatitis C virus; assay: Antiviral activity against HCV genotype 1b harboring wild type NS3/4A protease infected in human HuH7 cells assessed as inhibition of viral replication after 72 hrs by RT-PCR method in presence of 10% normal human serum; format: functional, organism-based, Hepacivirus hominis; conditions: Huh-7, 72 h
[3] = Inhibition of HCV genotype 1b full length NS3/4A protease using Ac-C(Eu)DDMEEAbu[COO]ASK(QSY7)-amide as substrate preincubated for 30 mins followed by substrate addition measured after 2.5 hrs by TRF assay; set-up: species or system Hepatitis C virus subtype 1b
[4] = target: Hepatitis C virus serine protease, NS3/NS4A (Hepatitis C virus, UniProt A3EZI9+D2K2A8, R155K); assay: Inhibition of HCV genotype 1b NS3/4A protease R155K mutant using Ac-C(Eu)DDMEEAbu[COO]ASK(QSY7)-amide as substrate preincubated for 30 mins followed by substrate addition measured after 2.5 hrs by TRF assay; set-up: species or system Hepatitis C virus subtype 1b
[5] = Inhibition of HCV genotype 1b NS3/4A protease D168Y mutant using Ac-C(Eu)DDMEEAbu[COO]ASK(QSY7)-amide as substrate preincubated for 30 mins followed by substrate addition measured after 2.5 hrs by TRF assay; set-up: species or system Hepatitis C virus subtype 1b
[6] = Inhibition of HCV genotype 1b NS3/4A protease A156V mutant using Ac-C(Eu)DDMEEAbu[COO]ASK(QSY7)-amide as substrate preincubated for 30 mins followed by substrate addition measured after 2.5 hrs by TRF assay; set-up: species or system Hepatitis C virus subtype 1b
[7] = Inhibition of HCV genotype 3a full length NS3/4A protease using Ac-C(Eu)DDMEEAbu[COO]ASK(QSY7)-amide as substrate preincubated for 30 mins followed by substrate addition measured after 2.5 hrs by TRF assay; set-up: species or system Hepatitis C virus subtype 3a
[8] = Inhibition of HCV genotype 1b NS3/4A protease A156T mutant using Ac-C(Eu)DDMEEAbu[COO]ASK(QSY7)-amide as substrate preincubated for 30 mins followed by substrate addition measured after 2.5 hrs by TRF assay; set-up: species or system Hepatitis C virus subtype 1b
[9] = target: Cytochrome P450 3A4 (Homo sapiens, UniProt P08684); assay: Inhibition of CYP3A4 (unknown origin) up to 50 uM; format: ADME
[10] = Oral bioavailability in rat at 5 mg/kg; format: ADME, organism-based; conditions: in vivo
[11] = target: T1, Cytochrome P450 2C8 (Homo sapiens, UniProt P10632); assay: Inhibition of CYP2C8 (unknown origin) up to 20 uM; format: ADME
T1 sequence (P10632 whole entry): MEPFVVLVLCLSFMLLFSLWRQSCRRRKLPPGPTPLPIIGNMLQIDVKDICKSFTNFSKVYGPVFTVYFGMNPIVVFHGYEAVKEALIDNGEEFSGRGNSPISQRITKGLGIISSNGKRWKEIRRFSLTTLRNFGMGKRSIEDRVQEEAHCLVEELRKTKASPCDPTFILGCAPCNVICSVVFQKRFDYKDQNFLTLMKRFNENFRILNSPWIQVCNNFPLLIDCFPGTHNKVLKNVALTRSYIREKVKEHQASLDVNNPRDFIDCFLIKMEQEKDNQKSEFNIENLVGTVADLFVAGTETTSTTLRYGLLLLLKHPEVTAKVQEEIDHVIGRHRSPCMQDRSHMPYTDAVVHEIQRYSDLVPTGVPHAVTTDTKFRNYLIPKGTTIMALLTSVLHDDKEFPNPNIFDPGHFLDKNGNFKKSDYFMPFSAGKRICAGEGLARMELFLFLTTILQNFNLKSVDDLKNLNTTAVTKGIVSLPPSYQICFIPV

[12] = test system: Canis familiaris; assay: Toxicity in conscious telemetered dog assessed as effect on respiratory function; format: organism-based, Canis lupus familiaris; conditions: in vivo
[13] = test system: Hepatitis C virus; assay: Antiviral activity against HCV genotype 1a infected in human HuH7 cells assessed as inhibition of viral replication after 72 hrs by RT-PCR method in presence of 100% normal human serum; format: functional, Hepacivirus hominis; conditions: subtype 1a, Huh-7, 72 h
[14] = test system: Canis familiaris; assay: Toxicity in conscious telemetered dog assessed as effect on body temperature; format: organism-based, Canis lupus familiaris; conditions: in vivo
[15] = species: Canis familiaris; assay: Protein binding in dog; format: ADME, organism-based, Canis lupus familiaris; conditions: in vivo
[16] = test system: Salmonella typhimurium; assay: Mutagenicity in Salmonella typhimurium by Ames test; format: toxicity, organism-based; conditions: salmonella enterica subsp. enterica serovar typhimurium
[17] = test system: Rattus norvegicus; assay: Toxicity in rat at 40 mg/kg/day measured for 3 days of dosing; format: organism-based; conditions: in vivo, 72 h
[18] = AUC (0 to 24 hrs) in rat at 5 mg/kg, po; format: ADME, organism-based; set-up: dose 5 mg/kg, time < 24 hr, route oral; conditions: in vivo
[19] = test system: Hepatitis C virus; assay: Antiviral activity against HCV genotype 3a infected in human HuH7 cells assessed as inhibition of viral replication after 72 hrs by RT-PCR method; format: functional, organism-based, Hepacivirus hominis; conditions: Huh-7, 72 h
[20] = test system: Hepatitis C virus; assay: Antiviral activity against HCV genotype 2b infected in human HuH7 cells assessed as inhibition of viral replication after 72 hrs by RT-PCR method; format: functional, organism-based, Hepacivirus hominis; conditions: Huh-7, 72 h
[21] = test system: Rattus norvegicus; assay: Toxicity in telemetered rat up to 40 mg/kg; format: organism-based; conditions: in vivo
[22] = test system: Canis familiaris; assay: Toxicity in telemetered dog up to 40 mg/kg; format: organism-based, Canis lupus familiaris; conditions: in vivo
[23] = Oral bioavailability in dog at 1 mg/kg; format: ADME, organism-based, Canis lupus familiaris; conditions: in vivo
[24] = test system: Rattus norvegicus; assay: Hepatotoxicity in rat at 134 uM measured for 3 days of dosing; format: toxicity, organism-based; conditions: in vivo, 72 h
[25] = test system: Canis familiaris; assay: Toxicity in conscious telemetered dog assessed as effect on heart rate; format: organism-based, Canis lupus familiaris; conditions: in vivo
[26] = test system: Hepatitis C virus; assay: Antiviral activity against HCV genotype 2a infected in human HuH7 cells assessed as inhibition of viral replication after 72 hrs by RT-PCR method in presence of 100% normal human serum; format: functional, Hepacivirus hominis; conditions: Huh-7, 72 h
[27] = test system: Liver; assay: Drug uptake in rat liver at 40 mg/kg/day; format: ADME, organism-based; conditions: in vivo, read-out: Drug uptake
[28] = test system: Hepatitis C virus; assay: Antiviral activity against HCV genotype 3a infected in human HuH7 cells assessed as inhibition of viral replication after 72 hrs by RT-PCR method in presence of 100% normal human serum; format: functional, Hepacivirus hominis; conditions: Huh-7, 72 h
[29] = Inhibition of HCV genotype 1a NS3/4A protease using Ac-C(Eu)DDMEEAbu[COO]ASK(QSY7)-amide as substrate preincubated for 30 mins followed by substrate addition measured after 2.5 hrs by TRF assay; set-up: species or system Hepatitis C virus subtype 1a
[30] = test system: Canis familiaris; assay: Toxicity in conscious telemetered dog assessed as effect on ECG parameters; format: organism-based, Canis lupus familiaris; conditions: in vivo
[31] = test system: Hepatitis C virus; assay: Antiviral activity against HCV genotype 1b infected in human HuH7 cells assessed as inhibition of viral replication after 72 hrs by RT-PCR method; format: functional, organism-based, Hepacivirus hominis; conditions: Huh-7, 72 h
[32] = target: Cytochrome P450 2C9 (Homo sapiens, UniProt P11712); assay: Inhibition of CYP2C9 (unknown origin) up to 50 uM; format: ADME
[33] = species: Rattus norvegicus; assay: Protein binding in rat; format: ADME, organism-based; conditions: in vivo
[34] = test system: Hepatitis C virus; assay: Antiviral activity against HCV genotype 1b infected in human HuH7 cells assessed as inhibition of viral replication after 72 hrs by RT-PCR method in presence of 100% normal human serum; format: functional, Hepacivirus hominis; conditions: Huh-7, 72 h
[35] = test system: Hepatitis C virus; assay: Antiviral activity against HCV genotype 2a infected in human HuH7 cells assessed as inhibition of viral replication after 72 hrs by RT-PCR method; format: functional, organism-based, Hepacivirus hominis; conditions: Huh-7, 72 h
[36] = target: Cytochrome P450 2D6 (Homo sapiens, UniProt P10635); assay: Inhibition of CYP2D6 (unknown origin) up to 50 uM; format: ADME
[37] = test system: Canis familiaris; assay: Toxicity in conscious telemetered dog assessed as effect on blood pressure; format: organism-based, Canis lupus familiaris; conditions: in vivo
[38] = test system: Hepatitis C virus; assay: Antiviral activity against HCV genotype 1a infected in human HuH7 cells assessed as inhibition of viral replication after 72 hrs by RT-PCR method; format: functional, organism-based, Hepacivirus hominis; conditions: subtype 1a, Huh-7, 72 h
[39] = test system: Hepatitis C virus; assay: Antiviral activity against HCV genotype 1a harboring wild type NS3/4A protease infected in human HuH7 cells assessed as inhibition of viral replication after 72 hrs by RT-PCR method in presence of 10% fetal bovine serum; format: functional, organism-based, Hepacivirus hominis; conditions: subtype 1a, Huh-7, 72 h
[40] = test system: Hepatitis C virus; assay: Antiviral activity against HCV genotype 1b harboring NS3/4A protease D168Y mutant infected in human HuH7 cells assessed as inhibition of viral replication after 72 hrs by RT-PCR method in presence of 10% fetal bovine serum; format: functional, organism-based, Hepacivirus hominis; conditions: Huh-7, 72 h
[41] = test system: Hepatitis C virus; assay: Antiviral activity against HCV genotype 1b harboring NS3/4A protease A156T mutant infected in human HuH7 cells assessed as inhibition of viral replication after 72 hrs by RT-PCR method in presence of 10% fetal bovine serum; format: functional, organism-based, Hepacivirus hominis; conditions: Huh-7, 72 h
[42] = test system: Hepatitis C virus; assay: Antiviral activity against HCV genotype 1b harboring NS3/4A protease R155K mutant infected in human HuH7 cells assessed as inhibition of viral replication after 72 hrs by RT-PCR method in presence of 10% fetal bovine serum; format: functional, organism-based, Hepacivirus hominis; conditions: Huh-7, 72 h

C=C[C@@H]1C[C@]1(NC(=O)[C@@H]1C[C@@H](Oc2ccc3ccccc3n2)CN1C(=O)[C@@H](NC(=O)OC(C)(C)C)C(C)(C)C)C(=O)NS(=O)(=O)C1(C)CC1
EC50 [1]: 58 nM
EC50 [2]: 610 nM
IC50 [3]: 2.7 nM
IC50 [4]: 2.9 nM
IC50 [5]: 27 nM
IC50 [6]: 6.2 nM
IC50 [7]: 430 nM
IC50 [8]: 3.1 nM

COc1ccc2nc(C(F)(F)F)c3c(c2c1)CC[C@]1(C[C@H]2C(=O)N[C@]4(C(=O)NS(=O)(=O)C5(C)CC5)C[C@H]4/C=C\CCCCC[C@H](NC(=O)OCC(C)C)C(=O)N2C1)O3
inhibition (INH) [9]: Not Active
bioavailability [10]: 31%
inhibition (INH) [11]: Not Active
Activity [12]: Non-toxic
EC90 [13]: 68 nM
Activity [14]: Non-toxic
PB [15]: Active
Activity [16]: Non-toxic
Activity [17]: Non-toxic
AUC(0-t) at 24 h [18]: 9 µM·h
EC50 [19]: 1.7 nM
IC50 [3]: 0.004 nM
EC50 [20]: 3.4 nM
Activity [21]: Non-toxic
Activity [22]: Non-toxic
IC50 [4]: 0.01 nM
bioavailability [23]: 17%
Activity [24]: Non-toxic
Activity [25]: Non-toxic
IC50 [5]: 0.023 nM
EC90 [26]: 60 nM
concentration [27]: 134 µM
EC90 [28]: 90 nM
IC50 [29]: 0.009 nM
Activity [30]: Non-toxic
EC50 [31]: 0.8 nM
inhibition (INH) [32]: Not Active
PB [33]: Active
IC50 [6]: 2.76 nM
IC50 [7]: 0.41 nM
EC90 [34]: 20 nM
EC50 [35]: 0.9 nM
inhibition (INH) [36]: Not Active
IC50 [8]: 0.483 nM
Activity [37]: Non-toxic
EC50 [38]: 0.7 nM

C=C[C@@H]1C[C@]1(NC(=O)[C@@H]1C[C@]2(CCc3c(c(C)nc4ccccc34)O2)CN1C(=O)[C@@H](NC(=O)OC(C)(C)C)C(C)(C)C)C(=O)NS(=O)(=O)C1(C)CC1
EC50 [1]: 5.5 nM
EC50 [39]: 33 nM
EC50 [40]: 4.6 nM
EC50 [2]: 13 nM
IC50 [3]: 0.033 nM
IC50 [4]: 0.046 nM
IC50 [5]: 0.38 nM
EC50 [41]: 21 nM
EC50 [42]: 5.7 nM
IC50 [6]: 2.7 nM
IC50 [7]: 5.7 nM
IC50 [8]: 0.71 nM
